Measured values published in US10112937B2, “P2X7 modulators and methods of use” (Janssen Pharmaceutica NV, priority 2013, dated 2018).

Target: human P2X7 (Homo sapiens (Human), UniProt Q99572)
Experiment: P2X7 antagonism in human PBMCs (IL-1β release after LPS + Bz-ATP, ELISA)
Format: cell-based
Details: test compound 10 μM

human P2X7, sequence (Q99572 whole entry): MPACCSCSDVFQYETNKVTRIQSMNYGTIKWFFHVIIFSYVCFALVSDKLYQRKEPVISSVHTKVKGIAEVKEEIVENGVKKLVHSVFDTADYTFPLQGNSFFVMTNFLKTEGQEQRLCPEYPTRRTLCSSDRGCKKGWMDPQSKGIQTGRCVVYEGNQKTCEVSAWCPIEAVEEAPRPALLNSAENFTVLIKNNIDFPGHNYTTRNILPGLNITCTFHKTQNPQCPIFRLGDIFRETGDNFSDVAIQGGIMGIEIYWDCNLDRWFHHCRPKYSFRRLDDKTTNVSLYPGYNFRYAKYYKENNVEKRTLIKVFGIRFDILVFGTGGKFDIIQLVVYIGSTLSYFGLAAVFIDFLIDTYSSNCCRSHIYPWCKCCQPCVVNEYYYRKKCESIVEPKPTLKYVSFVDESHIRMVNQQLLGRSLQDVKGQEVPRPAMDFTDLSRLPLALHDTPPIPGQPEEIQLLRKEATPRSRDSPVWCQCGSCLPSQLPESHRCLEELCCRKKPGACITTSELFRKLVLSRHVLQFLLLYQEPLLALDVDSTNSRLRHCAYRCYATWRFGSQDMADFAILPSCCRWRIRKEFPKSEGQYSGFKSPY

| PBMC 10 μM (% control) (human PBMCs) | Structure (SMILES) | PBMC 10 μM (% control) (LPS 30 ng/ml + 0.5 mM Bz-ATP) |
| --- | --- | --- |
| 5.8 % control | CC1Cc2c(-c3ccnn3C)nn(C)c2CN1C(=O)c1cccc(C(F)(F)F)c1Cl (stereo not shown) [Example 266, (2-chloro-3-(trifluoromethyl)phenyl)(1,5-dimethyl-3-(1-methyl-1H-pyrazol-5-yl)-4,5-dihydro-1H-pyrazolo[3,4-c]pyridin-6(7H)-yl)methanone] | – |
| −7.6 % control | O=C(c1ccc(Cl)cc1F)N1CCc2c(nnn2-c2cnccn2)C1 [Example 272, (4-chloro-2-fluorophenyl)(1-(pyrazin-2-yl)-6,7-dihydro-1H-[1,2,3]triazolo[4,5-c]pyridin-5(4H)-yl)methanone] | – |
| −2.1 % control | CC1c2nnn(-c3cnccn3)c2CCN1C(=O)c1cccc(C(F)(F)F)c1F (stereo not shown) [Example 273, (2-fluoro-3-(trifluoromethyl)phenyl)(4-methyl-1-(pyrazin-2-yl)-6,7-dihydro-1H-[1,2,3]triazolo[4,5-c]pyridin-5(4H)-yl)methanone] | – |
| −4.8 % control | CC1c2nnn(-c3cnccn3)c2CCN1C(=O)c1ccc(Cl)cc1F (stereo not shown) [Example 274, (4-chloro-2-fluorophenyl)(4-methyl-1-(pyrazin-2-yl)-6,7-dihydro-1H-[1,2,3]triazolo[4,5-c]pyridin-5(4H)-yl)methanone] | – |
| −8.3 % control | CC1c2nnn(-c3ncccn3)c2CCN1C(=O)c1ccc(Cl)cc1F (stereo not shown) [Example 275, (4-chloro-2-fluorophenyl)(4-methyl-1-(pyrimidin-2-yl)-6,7-dihydro-1H-[1,2,3]triazolo[4,5-c]pyridin-5(4H)-yl)methanone] | – |
| −0.9 % control | Cc1c(C(=O)N2CCc3c(nnn3-c3cnccn3)C2)cccc1C(F)(F)F [Example 276, (2-methyl-3-(trifluoromethyl)phenyl)(1-(pyrazin-2-yl)-6,7-dihydro-1H-[1,2,3]triazolo[4,5-c]pyridin-5(4H)-yl)methanone] | – |
| −5.5 % control | Cc1c(C(=O)N2CCc3c(nnn3-c3ncccn3)C2C)cccc1C(F)(F)F (stereo not shown) [Example 282, (4-methyl-1-(pyrimidin-2-yl)-6,7-dihydro-1H-[1,2,3]triazolo[4,5-c]pyridin-5(4H)-yl)(2-methyl-3-(trifluoromethyl)phenyl)methanone] | – |
| −6.3 % control | CC1c2nnn(-c3ncccn3)c2CCN1C(=O)c1ccc(Cl)cc1Cl (stereo not shown) [Example 283, (2,4-dichlorophenyl)(4-methyl-1-(pyrimidin-2-yl)-6,7-dihydro-1H-[1,2,3]triazolo[4,5-c]pyridin-5(4H)-yl)methanone] | – |
| −2.6 % control | C[C@H]1Cc2c(nnn2-c2ccc(F)cc2)[C@H](C)N1C(=O)c1cccc(C(F)(F)F)c1Cl [Example 285, (2-chloro-3-(trifluoromethyl)phenyl)((4S,6S)-1-(4-fluorophenyl)-4,6-dimethyl-6,7-dihydro-1H-[1,2,3]triazolo[4,5-c]pyridin-5(4H)-yl)methanone] | – |
| 5.8 % control | C[C@@H]1Cc2c(nnn2-c2ccc(F)cc2)[C@H](C)N1C(=O)c1cccc(C(F)(F)F)c1Cl [Example 286, (2-chloro-3-(trifluoromethyl)phenyl)((4S,6R)-1-(4-fluorophenyl)-4,6-dimethyl-6,7-dihydro-1H-[1,2,3]triazolo[4,5-c]pyridin-5(4H)-yl)methanone] | – |
| 4.4 % control | C[C@H]1Cc2c(nnn2-c2ccccc2)CN1C(=O)c1cccc(C(F)(F)F)c1Cl [Example 288, (S)-(2-chloro-3-(trifluoromethyl)phenyl)(6-methyl-1-phenyl-6,7-dihydro-1H-[1,2,3]triazolo[4,5-c]pyridin-5(4H)-yl)methanone] | – |

| Structure (SMILES) | PBMC 10 μM (% control) (human PBMCs) | PBMC 10 μM (% control) (LPS 30 ng/ml + 0.5 mM Bz-ATP) |
| --- | --- | --- |
| C[C@@H]1c2nnn(-c3ccc(F)cc3)c2C[C@H](C)N1C(=O)c1cccc(C(F)(F)F)c1Cl [Example 287, (2-chloro-3-(trifluoromethyl)phenyl)((4R,6S)-1-(4-fluorophenyl)-4,6-dimethyl-6,7-dihydro-1H-[1,2,3]triazolo[4,5-c]pyridin-5(4H)-yl)methanone] | −4.1 % control | −4.1 % control |
